US8415327B2, “Methods of and compositions for reducing cell death” (priority 2009, dated 2013)
“Also recorded” adds a separate entry of the source.

Assays:
[1] = Sulfhydryl reducing activity (DTNB); assay type: biochemical
Description: Sulfhydryl reducing activity: Sulfhydryl reducing activity was measured with 5-5′-dithio-bis(2-nitrobenzoic acid) (DTNB), which undergoes a colorimetric change when its disulfide linkage is reduced. Reaction of various concentrations of dithiothreitol, tris(carboxyethyl)phosphine, PB1, or PB2 with 30 mM DTNB in methanol was carried out in buffer at pH 5, 7, and 9. The sulfhydryl reduction potentials of PB1 and PB2 were assessed both before and after borane deprotection with DABCO.

[2] = test system: retinal endothelial cells; assay: Protection of retinal endothelial cells from H2O2 oxidative damage; assay type: cell-based, murine; conditions: for most effective concentration against oxidative insults: tested at 1-1000 μM
Description: Cell Culture: Murine endothelial cells were cultured as described in Experiment 3. Endothelial cells were treated directly with high levels of H2O2 in the absence or presence of PB1 and PB2 at a concentrations of 1-1000 μM.

[3] = Superoxide scavenging (hydroethidine fluorescence, xanthine/xanthine oxidase); assay type: biochemical
Description: Superoxide scavenging: The ability of PB1 and PB2 to scavenge superoxide was quantified essentially as described ([…] et al., Invest. Opthalmol. Vis. Sci. 47:3878 (2006)). Essentially, fluorescence of hydroethidine was measured after exposure to superoxide generated by xanthine/xanthine oxidase, in the presence or absence of PB1, PB2, or polyethylene glycol-conjugated superoxide dismutase used as positive control.

[4] = test system: retinal endothelial cells; assay: Radiation-induced death of retinal endothelial cells, calcein-AM/propidium iodide viability assay; assay type: cell-based, murine; conditions: for rescue: 1 μM at the time of irradiation, 72 hours; for radio-protection: administered before or at the time of irradiation
Description: Cell Culture: Murine endothelial cells were isolated from Immortomice, which express a temperature-sensitive Simian virus 40 large T antigen, using sheep anti-rat Dynabeads coated with the rat anti-mouse PECAM-1 monoclonal antibody MEC13.3. […] Irradiation and Viability Assays: The cells were plated onto 1% gelatin coated 96-well plates at a density of 2,000 cells per well. For irradiation, control and treatment groups were removed from the incubator. Treatment groups received single doses of radiation between 1 and 30 Gray using an irradiator containing ^137Cesium (JL Shepherd & Associates) using a rotating platform to ensure uniform delivery. Control groups were left at room temperature during irradiation of the treatment groups. PB1 or PB2 was administered 18 hours before, immediately before, or 18 hours after irradiation. Media was aspirated 48 or 72 hours after irradiation using a 30 gauge needle and the cells were incubated in staining containing calcein-AM and propidium iodide in PBS for 30 minutes at room temperature in the dark. Digital photomicrographs of the wells were taken at a total magnification of 200× on a Zeiss Axiovert inverted microscope under epifluorescence. Calcein-positive (viable) and propidium iodide-positive (dead) cells were counted using NIH ImageJ software. Statistical significance was determined using the Student's t-tests.

RGC-5 cells [5] = assay: Rescue of RGC-5 cells from METC-active drugs (menadione, rotenone, antimycin A), calcein/propidium iodide viability assay; conditions: for protection/rescue from death induced by menadione, rotenone and antimycin A: RGC-5 cells, 24 hours co-incubation; for viability (live cells compared to untreated controls): 24 hours; for rescue of RGC-5 cells at higher concentrations: most likely due to toxicity
Description: Cell Culture: RGC-5 cells were cultured in Dulbecco's modified Eagle's medium (DMEM) (Mediatech, Inc., Manassas, Va.). containing 1 g/L glucose, supplemented with 10% fetal bovine serum, 100 U/mL penicillin, and 100 μg/mL streptomycin (Mediatech, Inc.). Cells were passaged every 48 to 72 hours when cells were approximately 60 to 75% confluent, replated at a 1:20 dilution in a 75 cm^2 flask in 20 ml of cell culture media and incubated at 37° C. in humidified 5% CO2. Experiments were performed in duplicate or triplicate.
Cell Treatment and Assessment of Viability: Cells were plated in 96-well plates at a density of 60 cells/mm^2 in 50 μL of media. Approximately 24 hours after plating, 50 μL of media containing either menadione, rotenone, or antimycin A, either with or without PB1 and PB2, was added to the cells to generate the final concentrations of 10 nM, 1 μM, or 100 μM. Control wells received media containing vehicle alone. Following 24 hours of treatment, media was aspirated from wells using a 25-gauge needle and cells stained with calcein-AM (10 μg/mL) and propidium iodide (1 μg/mL) (both Invitrogen, Carlsbad, Calif.) in PBS for 30 minutes. The staining solution was aspirated using a 25-gauge needle and replaced with PBS. Three randomly chosen fields per well were photographed on an Axiovert 135 microscope under epifluorescence with a Nikon D70s digital SLR camera (Nikon, Melville, N.Y.) at a resolution of 3008×2000 pixels and an exposure time of 1.6 seconds. Live (calcein-positive) and dead (propidium iodide-positive) cells were assessed using Image) software. Pictures were batch analyzed using a macro containing the following actions: subtract background, threshold, erode, erode, watershed, and analyze particles between the sizes of 1000 pixels and infinity. […] Each experiment was analyzed with respect to its own set of controls to account for variation in passage number of the RGC-5 cells and small differences between batches of cryopreserved RGC-5 cells.
Statistics: Viability was assessed as number of live cells/mm^2, and compared to the untreated controls of each experiment. Means were compared using Student's unpaired t-test.
RGC-5 cells plated in 96-well plates were treated for 24 hours with the redox cycling agent menadione, the complex I inhibitor rotenone, or the complex III inhibitor antimycin A, at final concentrations ranging from 100 nM to 31.6 μM (menadione) or 1 μM to 316 μM (rotenone or antimycin A). […] RGC-5 cells were co-incubated with these mitochondrial electron transporter chain (METC)-drugs and the borane-phosphines PB1 or PB2 for 24 hours, followed by assessment of cell viability by calcein/propidium iodide assay. TCEP (100 μM) served as a positive control.

RGC-5 cells [6] = assay: Menadione-induced cell death in RGC-5 cells (calcein-AM viable cell count); assay type: cell-based; conditions: for neuroprotection against menadione-induced cell death / effectiveness as neuroprotectant compared with PB3: RGC-5 cells; for % of the cells protected from menadione-induced cell death: 17.8 μM menadione, 24 hours; for effectiveness as neuroprotectant compared with PB3: menadione
Description: Cell Culture: Cells of RGC-5 (ATCC Deposit Accession No. PTA-6600), a neuronal cell line, were suspended in growth medium and plated in 96-well plates at a density of 2,000 cells per well. After 24 hours in culture, cells were treated with 17.8 μM menadione (Sigma-Aldrich, St. Louis, Mo.). Menadione creates oxidative stress resulting in cell death. PB3, PB4, or PB6 was added to the wells directly before menadione treatment. After 24 hours of menadione treatment, the cells were stained with calcein-AM and photographed.

| SMILES | disulfide reduction as mechanism of protection [1] | most effective concentration against oxidative insults ([2]; H2O2) | superoxide scavenging as mechanism of protection [3] | rescue ([4]; 3 Gy) | radio-protection [4] | protection/rescue from death induced by menadione, rotenone and antimycin A (RGC-5 cells [5]) | rescue of RGC-5 cells at higher concentrations (RGC-5 cells [5]) | neuroprotection against menadione-induced cell death (RGC-5 cells [6]) | % of the cells protected from menadione-induced cell death (RGC-5 cells [6]; compound 1 μM) | effectiveness as neuroprotectant compared with PB3 (RGC-5 cells [6]) | also measured |
| --- | --- | --- | --- | --- | --- | --- | --- | --- | --- | --- | --- |
| [BH3-][P+](CCC(=O)OC)(CCC(=O)OC)c1ccccc1 [PB1, bis(3-propionic acid methyl ester)phenylphosphine borane complex] | involves disulfide reduction | 1 µM | not superoxide scavenging | 35% | effective radio-protectants | significant rescue; also recorded: significant protection | little or no rescue | – | – | – | viable cell counts, % of control ([2]; H2O2, compound 1 μM, 24 hours, 4.2±1.1% without compound): 10.8±2.3%; protection against radiation exposures ([4]; 100 nM, 18 hours after irradiation, all radiation exposures tested): significant protection; viable cell counts, % of non-irradiated control ([4]; 1 μM administered at the time of irradiation, 3 Gy, 72 hours after irradiation, 29±6% without compound): 54±6%; radiomitigation: change in viable cell counts ([4]; administered 18 hours after exposure to ionizing radiation up to 30 Gy): significant increases in viable cell counts; protection against radiation exposure ([4]; all PB1 treatment levels, 18 hours after irradiation, 30 Gy, p<0.05): significant protection; viability (live cells compared to untreated controls) (RGC-5 cells [5]; antimycin A, compound 100 μM, vs. 34±2% without compound): 74±4%; viability (live cells compared to untreated controls) (RGC-5 cells [5]; menadione, compound 100 μM, vs. 34±4% without compound): 83±5%; viability (live cells compared to untreated controls) (RGC-5 cells [5]; rotenone, PB1 concentration not restated (100 μM in preceding sentence), vs. 25±3% without compound): 36±3% |
| [BH3-][P+](CCC(=O)OC)(c1ccccc1)c1ccccc1 [PB2, (3-propionic acid methyl ester)diphenylphosphine borane complex] | involves disulfide reduction | 1 µM | not superoxide scavenging | 46% | effective radio-protectants | significant rescue; also recorded: significant protection | little or no rescue | – | – | – | viable cell counts, % of control ([2]; 1 µM): 9.0±1.6%; toxicity to RGC-5 cells (RGC-5 cells [5]): toxic |
| B.CCCCCCOC(=O)CCP(CCC(=O)OCCCCCC)c1ccccc1 [PB3, bis(3-propionic acid hexyl ester)phenylphosphine borane complex] | – | – | – | – | – | – | – | neuroprotective | 46.4±16.8% | – | % of the cells protected from menadione-induced cell death (RGC-5 cells [6]; compound 10 μM): 38.3±12.2%; % of the cells protected from menadione-induced cell death (RGC-5 cells [6]; compound 100 μM): 30.9±4.3% |
| [BH3-][P+](CCC(=O)OCCCCCC)(c1ccccc1)c1ccccc1 [PB4, (3-propionic acid hexyl ester)diphenylphosphine borane complex] | – | – | – | – | – | – | – | neuroprotective | 19.0±5.5% | less effective neuroprotectants than PB3 | – |
| [BH3-][P+](CC(=O)NCC)(c1ccccc1)c1ccccc1 [PB6, (2-Ethyl acetamide)diphenylphosphine borane complex] | – | – | – | – | – | – | – | neuroprotective | – | less effective neuroprotectants than PB3 | % of the cells protected from menadione-induced cell death (RGC-5 cells [6]; compound 10 pM): 25.6±8.4% |
